Experimental data reported in patent US10836767B2, “Serum stable pro-coelenterazine analogues” (PROMEGA CORPORATION, priority 2017, dated 2020).
“Also recorded” adds a separate entry of the source.

Tests used:
[1] = tested on: CMV promoter-NanoLuc® gene transfected HEK293 cells; experiment: Live cell reporter gene assay, luminescent signal decay over time with/without porcine liver esterase (PLE); assay type: cell-based; details: DMEM, 10% FBS
Protocol: The synthesized pro-coelenterazine or pro-furimazine compounds were evaluated in a live cell reporter gene assay. As shown in FIGS. 3A-C, the luminescent signal decays were monitored over time in HEK293 cells in DMEM media with 10% FBS transfected with 10 ng/well of CMV promoter-NanoLuc® gene with/without adding exogenous esterase porcine liver esterase (PLE) with three representative pro-coelenterazine analogues, e.g. serum instable compound WZ-0308, traditional live cell pro-substrate PBI-4377, and disclosed serum stable compound WZ-0324. The evaluations were performed by the following protocol.
Day 1: Plate cells. HEK293 cells were grown in complete medium (DMEM+10% FBS+1× Non-Essential Amino Acids (NEAA)). The cells were harvested at passasge 6 (˜95% confluent), by a procedure of: washing with DPBS, treating the cells with TrypLE Express until cells dislodged, adding 4× volumes of complete medium, pelleting at 188×g for 2 minutes, and suspending the cells in complete medium to 7.35E4 cells/mL. The cells were plated 100 μL per well into the inner 60 wells of 96-well plates (7,350 cells per well): 100 μL DPBS in the 36 outside wells and 100 μL DPBS between wells. The cells were than incubated overnight at 37° C., 5% CO2.
Day 2: Transfection. Two two master mixes (MM) were made: MM#1: 1.63 μL prep #1; 9.5 μL prep #3; 1.9 mL OM1; and MM#2: 2.9 uL prep #2; 9.5 μL prep #3; 1.9 mL OM1. 35.6 μl FuGENE HD was added to each MM and mixed by pipetting up/down. The mixture was incubated for ˜10 minutes at room temperature. Next, 8 μL of the mixture was added per well using single channel repeater pipette; n=3 per condition. The mixture was then incubated for ˜24 hours at 37° C., 5% CO2.
(§1) Day 3: Live cell assay. Stocks of tested compounds in DMSO (500×) were prepared by serial dilution of 50 mM stock with DMSO. The Medium+/− porcine liver esterase (PLE) at room temperature was prepared by adding 1 and 0.333 ug/ml PLE in CO2 IM+10% FBS. CO2 IM+10% FBS with no added PLE was also prepared. Next, medium+test compound solutions (room temperature) was prepared by the steps of: adding 2 mL of respective medium per channel, adding 4 μL respective tested compound stock per channel and mixing by pipetting up/down 10-15×. The final DMSO concentration was 0.2% v/v. The DMSO solution was dropped to the bottom of the channel, showing precipitation for the higher concentrations. After pipetting up/down, solutions with WZ-0324 at a final concentration of ≥50 uM were noticeably hazy (100 uM>75 uM>50 uM), in some cases even after extended incubation at 37° C. The Solutions were allowed to stand at room temperature for 15-20 minutes prior to addition to cells (P1->P2->P3).
The medium was aspirated and replaced with 200 μL/well of respective medium+tested compound solution. DPBS was added to 200 μL total to outside 36× wells. The system was quickly moved to respective GMM+ to start RLU measurements at 37° C. The measuments were carried out under the following conditions: 1 second integration time; RLU measurement every 15 minutes; the lid was removed for the overnight RLU measurements; and initial RLU measurement would be <37° C. owing to the addition of room temperature medium and cooling of the plate.
Data analysis: average RLU plotted for n=3; error represented as standard deviation was included in each imbedded Prism file, but not shown for the sake of clarity in interpreting the curves.

[2] = Haze (solubility) observation of medium + test compound solutions; assay type: physicochemical; details: for concentration above which haze was observed: medium + compound solution
Protocol: as §1

[3] = Stability test by HPLC in DMSO or DMEM media with or without fetal bovine serum; assay type: in vitro ADME; details: 40 μM; DMEM media with 10% FBS; 10 hours
Protocol: “Serum stability” refers to the stability of a compound in media or culture that includes serum. The serum as used herein may include, but is not limited to, fetal bovine serum (FBS). Serum stability of a compound as used herein generally may be characterized by the extent of degradation of such compound in a serum over a period of time. For example, a compound may degrade by less than 25%, less than 20%, less then 15%, or even less than 10% in FBS over a period of 24 hours or longer. For live cell assays, serum (such as FBS) is a component to maintain cell health. The degree of degradation of the disclosed compounds or the other pro-coelenterazine analogues in DMSO control, or DMEM media with/without FBS, can be monitored by HPLC using specific elution solvent/buffer (e.g. 0.1% TFA and acetonitrile) under the same condition at certain time of points. The percentage of purity can be calculated by the peak area of the tested compound divided by the total peak areas including tested compound and degradation compounds at their corresponding retention time at certain absorbance wavelength (e.g. 260 nm) at certain time point in media with/without FBS. The changes of purity for a given compound over time indicate the degree of instability of the compound in media/culture with/without serum.
The tested compounds were dissolved in DMSO stock at a concentration of 20 mM. […]

[4] = tested on: HEK 293 cells transiently transfected with SmBiT-PRKACA and LgBiT-PRKAR2A; experiment: Live cell assay, luminescent signal decay over time in HEK293 cells expressing the PKA NanoBiT pair; assay type: cell-based; details: DMEM, 4% FBS; for strength of signal relative to PBI-4377: concentration above 20 uM; for luminescent signal decay: almost independent of concentration
Protocol: Compounds WZ-0429, WZ-0439, WZ-0454, WZ-0441, WZ-0451. WZ-0416, WZ-0420, WZ-0461 and WZ-0419 were tested in HEK 293 cells transiently transfected plasmid DNA constructs for SmBiT-PRKACA and LgBiT-PRKAR2A expressed via the HSV-TK promoter in DMEM media with 4% FBS, and the luminescent signal decays were monitored over time. […] In contrast, the serum instable compounds, WZ-0429. […] The evaluations of compounds WZ-0429, WZ-0439, WZ-0454, WZ-0441, WZ-0451. WZ-0416, WZ-0420, WZ-0461 and WZ-0419 were performed by the following protocol.
Day 1, plate cells. HEK293 cells were grow in complete medium [DMEM+10% FBS+1× NEAA]. Cells were plated at approximately 10,000 cells per well (100 μL) in 96-well plates (Corning 3917).
Day 2, transient transfection. Plasmid DNA constructs for SmBiT-PRKACA and LgBiT-PRKAR2A expressed via the HSV-TK promoter were diluted to 6.25 ng/μL in Opti-MEM® I and FuGENE HD was added at a 3:1 lipid:DNA ratio. After a 5-10 minute incubation at room temperature, 8 μl of lipid:DNA solution was added per well, and cells were incubated in a 37° C., 5% CO2 incubator overnight.
Day 3, live cell assay. Compounds were dissolved to 50 mM final in DMSO. Compounds were diluted in DMSO to give 33.3, 16.7 and 6.7 mM stocks. DMSO stock solutions were diluted 667-fold in Opti-MEM® I to give 1× solutions. Complete medium was aspirated and replaced with the respective 1× solution containing 75, 50, 25 or 10 uM of the respective compounds (0.15% v/v DMSO final), such as WZ-0429, WZ-0439, WZ-0454, WZ-0441WZ-0451, WZ-0416, WZ-0420 and WZ-0419, but containing 40, 30, 20 or 10 μM as an instead for compound WZ-0461. Luminescence was measured on a GloMax Multi Plus luminometer every 15 minutes at 37° C. using a 1 second integration time.

In the case of `CC(=O)OCOc1c(Cc2ccco2)nc2c(Cc3ccccc3)nc(-c3ccccc3)cn12` [WZ-0308], the “signal at the initial time point” value [1] is reported as “highest signal”, the luminescent signal decay ([1]; FIG. 3A) is reported as “rapid signal decay” and the “period of rapid luminescent signal decay” value ([1]; even without exogenous PLE) is reported as 2 to 3 h.
In the case of `COCCOCCOCC(C)(C)C(=O)OCOc1c(Cc2ccco2)nc2c(Cc3ccccc3)nc(-c3ccccc3)cn12` [WZ-0324, ((8-benzyl-2-(furan-2-ylmethyl)-6-phenylimidazo[1,2-a]pyrazin-3-yl)oxy)methyl 3-(2-(2-methoxyethoxy)ethoxy)-2,2-dimethylpropanoate], the “luminescence after addition of exogenous PLE esterase versus without PLE” value ([1]; PLE added) is reported as “significantly enhanced; also recorded: significantly higher luminescence”, the “signal in the absence of exogenous PLE esterase, versus PBI-4377” value ([1]; no PLE) is reported as “higher signal” and the “final concentration at which solutions were noticeably hazy” value ([2]; CO2 IM + 10% FBS, 0.2% v/v DMSO, after pipetting up/down) is reported as at least 50 µM. For the same molecule, the “concentration above which haze was observed” value [2] was “above 70 μM” and the “concentration above which haze was observed” value ([2]; listed as WZ-324) was over 70 µM.
With `CC(C)C(=O)OCOc1c(Cc2ccco2)nc2c(Cc3ccccc3)nc(-c3ccccc3)cn12` [WZ-0415] the “degradation (HPLC purity change)” value [3] was “approximately 50%”.
With `O=C(OCOc1c(Cc2ccco2)nc2c(Cc3ccccc3)nc(-c3ccccc3)cn12)c1ccccc1` [WZ-0416, ((8-benzyl-2-(furan-2-ylmethyl)-6-phenylimidazo[1,2-a]pyrazin-3-yl)oxy)methyl benzoate] the “signal strength (brightness) relative to PBI-4377” value [4] was “comparable or slightly better”.
With `O=C(OCOc1c(Cc2ccco2)nc2c(Cc3ccccc3)nc(-c3ccccc3)cn12)c1ccco1` [WZ-0420, ((8-benzyl-2-(furan-2-ylmethyl)-6-phenylimidazo[1,2-a]pyrazin-3-yl)oxy)methyl furan-2-carboxylate] the “strength of signal relative to PBI-4377” value [4] was 10 times.
For `O=C(OCOc1c(Cc2ccco2)nc2c(Cc3ccccc3)nc(-c3ccccc3)cn12)C1CCCO1` (centres unmarked) [WZ-0429], the luminescent signal decay [4] was “rapid signal decay”.
In the case of `O=C(OCOc1c(Cc2ccco2)nc2c(Cc3ccccc3)nc(-c3ccccc3)cn12)C1CCOC1` (centres unmarked) [WZ-0439], the luminescent signal decay [4] is reported as “rapid signal decay”.
In the case of `C=CCOC(=O)N1CCC(C(=O)OCOc2c(Cc3ccco3)nc3c(Cc4ccccc4)nc(-c4ccccc4)cn23)C1` (centres unmarked) [WZ-0441], the luminescent signal decay [4] is reported as “rapid signal decay”.
For `COC(C)(C)C(=O)OCOc1c(Cc2ccco2)nc2c(Cc3ccccc3)nc(-c3ccccc3)cn12` [WZ-0451, ((8-benzyl-2-(furan-2-ylmethyl)-6-phenylimidazo[1,2-a]pyrazin-3-yl)oxy)methyl 2-methoxy-2-methylpropanoate], the “strength of signal relative to PBI-4377” value [4] was 10 times.
With `COC(OC)C(=O)OCOc1c(Cc2ccco2)nc2c(Cc3ccccc3)nc(-c3ccccc3)cn12` [WZ-0454] the luminescent signal decay [4] was “rapid signal decay”.
For `O=C(OCOc1c(Cc2ccco2)nc2c(Cc3ccccc3)nc(-c3ccccc3)cn12)c1ccoc1` [WZ-0461, ((8-benzyl-2-(furan-2-ylmethyl)-6-phenylimidazo[1,2-a]pyrazin-3-yl)oxy)methyl furan-3-carboxylate], the “signal strength (brightness) relative to PBI-4377” value [4] was “comparable or slightly better”.
